Data: publication PMC11802874, “The hypolipidemic effect of MI-883, the combined CAR agonist/ PXR antagonist, in diet-induced hypercholesterolemia model” (Nature Communications, 2025)
“And” between values parts separate entries of the source, which are not always exact repeats. Identical values can stand only once.

How the values were obtained:
[1] = test system: LS174T cells (endogenous PXR); experiment: CYP3A4 mRNA RT-qPCR in LS174T cells
Excerpt: LS174T human colon adenocarcinoma cells (RRID:CVCL_1384) were used in induction experiments with the subsequent CYP3A4 mRNA RT-qPCR analysis as they express functional endogenous PXR.

[2] = test system: PXR-responsive CYP3A4(pER6)-luc construct; experiment: CYP3A4(pER6)-luc luciferase reporter assay in HepG2 cells
murine Car = conditions: cited from earlier work
HepaRG cells = experiment: RT-qPCR mRNA expression in differentiated HepaRG cells
[3] = normal mice, ref 10 of the reply (Dempsey et al.)

Compound: CCOP(=O)(OCC)C(=Cc1cc(C(C)(C)C)c(O)c(C(C)(C)C)c1)P(=O)(OCC)OCC [SR12813]
- RT-qPCR in LS174T (Fig 1 l, CYP3A4 mRNA), replicates ([1]; single agent 1μM, ctrl = 1): 1.75 and 3.85 and 3.1
- pER6-luc luciferase gene reporter assay (Fig1 m), replicates ([2]; single agent 1μM, ctrl ~1): 6.4 and 6.3 and 4.7
- pER6-luc luciferase gene reporter assay (Fig1 m), replicates ([2]; single agent 10μM): 11.93 and 6.55 and 11

Compound: Clc1cnc(Oc2ccc(Oc3ncc(Cl)cc3Cl)cc2)c(Cl)c1 [TCPOBOP]
- suppression of atherosclerotic lesions in the aortic valves (murine Car; Ldlr –/– mice): 60%
- decrease of cholesterol content in the liver (murine Car; after 2 months): 25%
- decrease of cholesterol content in the whole body (murine Car; after 2 months): ~50%
- increase of fecal excretion of 3H-labeled bile acids (murine Car; mice): ~ 40%
- colon bsh activity compared to control animals (murine Car; [3]): 30%
- increase of colon unconjugated and total BA pools (not significant) (murine Car; [3]): about 1.4 fold

Compound: CO[C@H]1/C=C/O[C@@]2(C)Oc3c(C)c(O)c4c(O)c(c(/C=N/N5CCN(C)CC5)c(O)c4c3C2=O)NC(=O)/C(C)=C\C=C\[C@H](C)[C@H](O)[C@@H](C)[C@@H](O)[C@@H](C)[C@H](OC(C)=O)[C@@H]1C [rifampicin, reference compound]
- PCSK9 mRNA in HepaRG cells (HepaRG cells; Supplementary Fig. 10b): Marginal effect
- SQLE mRNA in HepaRG cells (HepaRG cells; rifampicin (5 μM)): weakly but significantly upregulated

Compound: SPA70 [reference compound]
- basal expression of SQLE mRNA in HepaRG cells (HepaRG cells): downregulated
- rifampicin induction of SQLE mRNA in HepaRG cells (HepaRG cells; MI-883 at 1 μM, SPA70): abrogated
- CYP2B6 expression relative to control (replicates) (HepaRG cells; SPA70 1 μM): 0.7099 and 0.6385
- CYP2B6 expression relative to control (replicates) (HepaRG cells; SPA70 1 μM + CITCO (1 μM)): 0.8 and 0.8395 and 0.9953
- CYP2B6 expression relative to control (replicates) (HepaRG cells; SPA70 5 μM): 0.4419 and 0.6247 and 0.5722
- CYP2B6 expression relative to control (replicates) (HepaRG cells; SPA70 5 μM + Rif (5 μM)): 0.8063 and 0.705 and 0.7533
- CYP3A4 expression relative to control (replicates) (HepaRG cells; SPA70 5 μM + Rif (5 μM)): 1.181 and 0.9078 and 1.057
- CYP2B6 expression relative to control (replicates) (HepaRG cells; SPA70 10 μM): 0.4185 and 0.6476 and 0.5707 and 0.3103
- CYP2B6 expression relative to control (replicates) (HepaRG cells; SPA70 10 μM + CITCO (1 μM)): 0.9283 and 0.5126 and 0.8752
- CYP2B6 expression relative to control (replicates) (HepaRG cells; SPA70 10 μM + Rif (5 μM)): 0.4242 and 0.5514 and 0.5133
- CYP3A4 expression relative to control (replicates) (HepaRG cells; SPA70 10 μM + Rif (5 μM)): 0.8451 and 0.9487 and 0.8513 and 0.8231
- CYP2B6 expression relative to control (replicates) (HepaRG cells; SPA70 20 μM): 0.8031 and 0.3464
- CYP2B6 expression relative to control (replicates) (HepaRG cells; SPA70 20 μM + CITCO (1 μM)): 1.219 and 0.6292 and 0.9541
- CYP2B6 expression relative to control (replicates) (HepaRG cells; SPA70 20 μM + Rif (5 μM)): 0.5214 and 0.5645
- CYP3A4 expression relative to control (replicates) (HepaRG cells; SPA70 20 μM + Rif (5 μM)): 0.8451 and 0.7532
- rifampicin-induced and basal CYP3A4 and CYP2B6 mRNA expression in HepaRG cells (HepaRG cells; Supplementary Fig. 10): suppressed
- RT-qPCR in LS174T (Fig 1 l, CYP3A4 mRNA), replicates ([1]; Rif 1μM + test compound 10μM): 0.37 and 0.6 and 0.8
- RT-qPCR in LS174T (Fig 1 l, CYP3A4 mRNA), replicates ([1]; SR12813 1μM + test compound 10μM): 0.46 and 0.35 and 0.34
- RT-qPCR in LS174T (Fig 1 l, CYP3A4 mRNA), replicates ([1]; single agent 10μM): 0.29 and 0.5 and 0.49
- pER6-luc luciferase gene reporter assay (Fig1 m), replicates ([2]; Rif 1μM + SPA70 10μM): 1.57 and 1.64 and 1.5
- pER6-luc luciferase gene reporter assay (Fig1 m), replicates ([2]; SR12813 1μM + SPA70 10μM): 1.2 and 2 and 3.55
- pER6-luc luciferase gene reporter assay (Fig1 m), replicates ([2]; single agent 1μM, ctrl ~1): 1.15 and 1.67 and 1.39
- pER6-luc luciferase gene reporter assay (Fig1 m), replicates ([2]; single agent 10μM): 1 and 1.1 and 1.26

Compound: SPA-70
- CYP3A4 expression relative to control (replicates) (HepaRG cells; SPA-70 1 μM): 0.8854 and 0.7984
- SQLE expression relative to control (mean) (HepaRG cells; SPA-70 1 μM + Rif (5 μM)): 0.6659
- SQLE expression relative to control (mean) (HepaRG cells; SPA-70 1 μM, 48 h): 0.6886
- CYP3A4 expression relative to control (replicates) (HepaRG cells; SPA-70 5 μM): 0.7429 and 0.6513 and 0.7215
- SQLE expression relative to control (mean) (HepaRG cells; SPA-70 5 μM + Rif (5 μM)): 0.7312
- SQLE expression relative to control (mean) (HepaRG cells; SPA-70 5 μM, 24 h): 0.9488
- SQLE expression relative to control (mean) (HepaRG cells; SPA-70 5 μM, 48 h): 0.6267
- CYP3A4 expression relative to control (replicates) (HepaRG cells; SPA-70 10 μM): 0.443 and 0.6539 and 0.5479 and 0.7562
- SQLE expression relative to control (mean) (HepaRG cells; SPA-70 10 μM + Rif (5 μM)): 0.7448
- SQLE expression relative to control (mean) (HepaRG cells; SPA-70 10 μM, 24 h): 0.7277
- SQLE expression relative to control (mean) (HepaRG cells; SPA-70 10 μM, 48 h): 0.6494
- CYP3A4 expression relative to control (replicates) (HepaRG cells; SPA-70 20 μM): 0.5871 and 0.5215
- SQLE expression relative to control (mean) (HepaRG cells; SPA-70 20 μM + Rif (5 μM)): 0.8792
- SQLE expression relative to control (mean) (HepaRG cells; SPA-70 20 μM, 48 h): 0.7487
